The text below walks through data of patent US20240010634A1, “PYRIMIDINYL SULFONAMIDES AS INHIBITORS OF ACK1/TNK2 TYROSINE KINASE” (H. LEE MOFFITT CANCER CENTER AND RESEARCH INSTITUTE, INC., priority 2020, published 2024).

Assay [1] concerns cell line which is dependent upon ACK1. The following applies: read-out: IC50, growth of a cell line dependent upon ACK1; cited from earlier work.
Assay [2] addresses T1, ACK1 (Homo sapiens (Human), UniProt Q07912). Particulars: cited from earlier work.
The next assay relates to ACK1 autophosphorylation. The following applies: heregulin-stimulated LNCaP cells; cited from earlier work.
Assay [3] deals with AR phosphorylation of Tyr-267. The following applies: heregulin-stimulated LNCaP cells; cited from earlier work.
Assay [4] deals with T1, ACK1. Description: ACK1 IC50 (Table 1, method not described). The assay is classed as biochemical.
The target in assay [5] is T1, ACK1. Kind of assay: Reaction Biology 33P Hotspot assay. It counts as biochemical.

T1 sequence (Q07912 whole entry): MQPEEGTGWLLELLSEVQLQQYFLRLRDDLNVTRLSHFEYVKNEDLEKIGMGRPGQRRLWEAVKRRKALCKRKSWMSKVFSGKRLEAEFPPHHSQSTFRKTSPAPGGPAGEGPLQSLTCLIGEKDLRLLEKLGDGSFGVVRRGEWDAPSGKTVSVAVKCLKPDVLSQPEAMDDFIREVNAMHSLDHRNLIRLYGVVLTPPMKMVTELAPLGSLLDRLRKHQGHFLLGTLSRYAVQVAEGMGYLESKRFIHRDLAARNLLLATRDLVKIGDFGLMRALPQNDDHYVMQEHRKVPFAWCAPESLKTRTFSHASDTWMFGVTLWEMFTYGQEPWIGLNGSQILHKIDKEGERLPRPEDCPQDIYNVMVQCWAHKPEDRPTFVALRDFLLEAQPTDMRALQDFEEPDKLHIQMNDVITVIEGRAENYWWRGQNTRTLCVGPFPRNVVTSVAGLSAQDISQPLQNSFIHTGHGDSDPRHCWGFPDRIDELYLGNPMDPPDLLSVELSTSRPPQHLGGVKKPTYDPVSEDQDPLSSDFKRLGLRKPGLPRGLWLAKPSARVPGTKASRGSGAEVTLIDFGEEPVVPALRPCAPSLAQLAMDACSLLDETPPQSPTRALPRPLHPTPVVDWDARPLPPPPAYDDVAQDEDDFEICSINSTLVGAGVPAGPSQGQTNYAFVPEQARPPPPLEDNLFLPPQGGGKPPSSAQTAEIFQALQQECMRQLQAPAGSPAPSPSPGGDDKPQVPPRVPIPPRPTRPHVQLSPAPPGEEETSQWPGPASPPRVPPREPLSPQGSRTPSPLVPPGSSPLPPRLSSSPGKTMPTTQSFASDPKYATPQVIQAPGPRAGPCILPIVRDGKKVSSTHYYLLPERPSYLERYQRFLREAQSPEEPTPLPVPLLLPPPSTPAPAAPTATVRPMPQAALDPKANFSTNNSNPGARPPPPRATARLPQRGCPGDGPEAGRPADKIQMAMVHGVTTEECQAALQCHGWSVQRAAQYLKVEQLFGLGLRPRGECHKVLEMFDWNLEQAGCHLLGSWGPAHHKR

Turning to `CN(C)CCOc1ccc(-c2oc3ncnc(NCC4SCCS4)c3c2-c2ccccc2)cc1` [Compound 1c], in assay [1], the IC50 was 5 nM. In addition, on ACK1 [2], the Ki is 0.3 nM.

In the case of `Cc1nc(Nc2ncc(C(=O)Nc3c(C)cccc3Cl)s2)cc(N2CCN(CCO)CC2)n1` [Dasatinib], the IC50 (in the assay with ACK1 autophosphorylation; in assay [3]) was less than 5 nM each time.

As to `COc1cc(N2CCN(C)CC2)ccc1Nc1ncc(C)c(Nc2ccc(Cl)c(NS(=O)(=O)C(C)(C)C)c2)n1` [N-(2-chloro-5-((2-((2-methoxy-4-(4-methylpiperazin-1-yl)phenyl)amino)-5-methylpyrimidin-4-yl)amino)phenyl)-2-methylpropane-2-sulfonamide], half-maximal inhibition against ACK1 [4] (IC50) was put at 33.2 nM.

For `COc1cc(N2CCN(C)CC2)ccc1Nc1ncc(C)c(Nc2cccc(NS(=O)(=O)C(C)(C)C)c2)n1` [N-(3-((2-((2-methoxy-4-(4-methylpiperazin-1-yl)phenyl)amino)-5-methylpyrimidin-4-yl)amino)phenyl)-2-methylpropane-2-sulfonamide], the IC50 turned out to be 21.9 nM against ACK1 [5] and 34.5 nM on ACK1 [4].
